Experimental data taken from US6855730B2, “3-methylidenyl-2-indolinone modulators of protein kinase” (Sugen, Inc., priority 1998, dated 2005).

Key:
[1] = target: T1, chimeric receptor containing the EGFR extracellular domain and intracellular HER2 kinase domain (Homo sapiens, UniProt P04626); assay: EGF Receptor-HER2 chimeric receptor assay in whole cells (ELISA); assay type: cell-based; details: read-out: HER-2 kinase IC50
T1 construct: fused on or other part: EGFR ectodomain + HER2 intracellular part, ATP-site indolinones: HER2's kinase
Protocol: EGF Receptor-HER2 Chimeric Receptor Assay In Whole Cells.
HER2 kinase activity in whole EGFR-NIH3T3 cells are measured as described below:
• a. […] 05-101 (UBI) (a monoclonal antibody recognizing an EGFR extracellular domain). • c. Anti-phosphotyrosine antibody (anti-Ptyr) (polyclonal) (see, Fendley, et al., supra). • d. Detection antibody: Goat anti-rabbit IgG horseradish peroxidase conjugate, TAGO, Inc., Burlingame, Calif. • e. TBST buffer:
• h. Stock reagents of:
Pre-coat ELISA Plate • 1. […] Coated plates are good for up to 10 days when stored at 4° C. • 2. On day of use, remove coating buffer and replace with 100 μl blocking buffer (5% Carnation Instant Non-Fat Dry Milk in PBS). Incubate the plate, shaking, at room temperature (about 23° C. to 25° C.) for 30 minutes. Just prior to use, remove blocking buffer and wash plate 4 times with TBST buffer.
Seeding Cells • 1. An NIH3T3 cell line overexpressing a chimeric receptor containing the EGFR extracellular domain and intracellular HER2 kinase domain can be used for this assay. • 2. Choose dishes having 80-90% confluence for the experiment. Trypsinize cells and stop reaction by adding 10% fetal bovine serum. Suspend cells in DMEM medium (10% CS DMEM medium) and centrifuge once at 1500 rpm, at room temperature for 5 minutes. • 3. Resuspend cells in seeding medium (DMEM, 0.5% bovine serum), and count the cells using trypan blue. Viability above 90% is acceptable. Seed cells in DMEM medium (0.5% bovine serum) at a density of 10,000 cells per well, 100 μl per well, in a 96 well microtiter plate. Incubate seeded cells in 5% CO2. at 37° C. for about 40 hours.
Assay Procedures • 1. Check seeded cells for contamination using an inverted microscope. Dilute drug stock (10 mg/ml in DMSO) 1:10 in DMEM medium, then transfer 5 μl to a […] well for a final drug dilution of 1:200 and a final DMSO concentration of 1%. Control wells receive DMSO alone. Incubate in 5% CO2 at 37° C. for two hours. • 2. Prepare EGF ligand: dilute stock EGF in DMEM so that upon transfer of 10 μl dilute EGF (1:12 dilution), 100 nM final concentration is attained. • 3. Prepare fresh HNTG* sufficient for 100 μl per well, and place on ice.
• 4. After 120 minutes incubation with drug, add prepared […] ligand to cells, 10 μl per well, to a final concentration of 100 nM. Control wells receive DMEM alone. Incubate with shaking, at room temperature, for 5 minutes. • 5. Remove drug, EGF, and DMEM. Wash cells twice with PBS. Transfer HNTG* to cells, 100 μl per well. Place on ice for 5 minutes. Meanwhile, remove blocking buffer from other ELISA plate and wash with TBST as described above. • 6. With a pipette tip securely fitted to a micropipettor, scrape cells from plate and homogenize cell material by repeatedly aspirating and dispensing the HNTG* lysis buffer. Transfer lysate to a coated, blocked, and washed ELISA plate. Incubate shaking at room temperature for one hour. • 7. Remove lysate and wash 4 times with TBST. Transfer freshly diluted anti-Ptyr antibody to ELISA plate at 100 μl per well. Incubate shaking at room temperature for 30 minutes in the presence of the anti-Ptyr antiserum (1:3000 dilution in TBST). • 8. Remove the anti-Ptyr antibody and wash 4 times with TBST. Transfer the freshly diluted TAGO anti-rabbit IgG antibody to the ELISA plate at 100 μl per well. Incubate shaking at room temperature for 30 minutes (anti-rabbit IgG antibody: 1:3000 dilution in TBST). • 9. Remove TAGO detection antibody and wash 4 times with TBST. Transfer freshly prepared ABTS/H2O2 solution to ELISA plate, 100 μl per well. Incubate shaking at room temperature for 20 minutes. (ABTS/H2O2 solution: 1.0 μl 30% H2O2 in 10 ml ABTS stock). • 10. Stop reaction by adding 50 μl 5N H2SO4 (optional), and determine O.D. at 410 nm. • 11. The maximal phosphotyrosine signal is determined by subtracting the value of the negative controls from the positive controls. […]

EGFR = EGFR (Homo sapiens, UniProt P00533); assay: Biochemical EGFR assay (ELISA, A431 cell lysate); set-up: A431 cell lysate (Screening Lab, SUGEN, Inc.); host or cells: A431; details: read-out: bio EGFr IC50
Protocol: This assay measures the in vitro kinase activity of EGFR using ELISA.
Materials and Reagents • 1. […] SUMO1 monoclonal anti-EGFR antibody (Biochemistry Lab, SUGEN, Inc.). • 3. PBS (Dulbecco's Phosphate-Buffered Saline, Gibco Catalog No. 450-1300EB). • 4. TBST Buffer
• 6. A431 cell lysate (Screening Lab, SUGEN, Inc.) • 7. TBS Buffer:
Prepare a 1.0 mM solution in dH2O. This reagent should be made up immediately prior to use and kept on ice. • 10. MnCl2.
Prepare a 1.0 M stock solution in dH2O. • 11. ATP/MnCl2 phosphorylation mix
This reagent should be prepared immediately before use and kept on ice. • 12. NUNC 96-well V bottom polypropylene plates (Applied Scientific Cat. No. AS-72092). • 13. Ethylenediaminetetraacetic acid (EDTA)
Prepare 200 mM working solution in dH2O. Adjust to pH 8.0 with 10 N NaOH. • 14. Rabbit polyclonal anti-phosphotyrosine serum (Biochemistry Lab, SUGEN, Inc.) • 15. Goat anti-rabbit IgG peroxidase conjugate (Biosource Cat. No. ALI0404) • 16. ABTS (2,2′-azino-bis(3-ethylbenzthiazoline-6-sulfonic acid), Sigma Cat. No. A-1888).
Mix first two ingredients in about 900 ml dH2O, adjust pH to 4.0 with phosphoric acid. Add ABTS, cover, let sit about 0.5 hr., filter. The solution should be kept in the dark at 4° C. until ready to use. • 17. Hydrogen peroxide 30% solution (Fisher Cat. No. H325) • 18. ABTS/H2O2 • Mix 15 ml ABTS solution and 2.0 μl H2O2. Prepare 5 minutes before use. • 19. 0.2 M HCl
Procedure • 1. Coat Corning 96 well ELISA plates with 0.5 μg SUMO1 in 100 μl PBS per well, store overnight at 4° C. • 2. Remove unbound SUMO1 from wells by inverting plate to remove liquid., Wash 1× with dH2O. Pat the plate on a paper towel to remove excess liquid. • 3. Add 150 μl of Blocking Buffer to each well. Incubate for 30 min. at room temperature with shaking. • 4. Wash plate 3× with deionized water, then once with TBST. Pat plate on a paper towel to remove excess liquid and bubbles. • 5. Dilute lysate in PBS (7 μg lysate/100 μl PBS). • 6. Add 100 μl of diluted lysate to each well. Shake at room temperature for 60 min. • 7. Wash plates as described in 4, above. • 8. Add 120 μl TBS to ELISA plate containing captured EGFR. • 9. Dilute test compound 1:10 in TBS in 96-well polypropylene plates (i.e. 10 μl compound+90 μl TBS). • 10. Add 13.5 μl diluted test compound to ELISA plate. […] Incubate for 30 minutes while shaking at room temperature. • 12. […] After 5 minutes, stop reaction by adding 16.5 μl of 200 mM EDTA (pH 8.0) to each well, shaking continuously. After the EDTA has been added, shake for 1 min. • 14. Wash 4× with deionized water, twice with TBST. • 15. Add 100 μl anti-phosphotyrosine (1:3000 dilution in TBST) per well. Incubate 30-45 min. at room temperature, with shaking. • 16. Wash as described in 4, above. • 17. Add 100 μl Biosource Goat anti-rabbit IgG peroxidase conjugate (1:2000 dilution in TBST) to each well. Incubate 30 min. at room temperature, with shaking. • 18. Wash as described in 4, above. • 19. Add 100 μl of ABTS/H2O2 solution to each well. • 20. Incubate 5 to 10 minutes with shaking. Remove any bubbles. • 21. If necessary stop reaction with the addition of 100 μl 1 0.2 M HCl per well. • 22. Read assay on Dynatech MR7000 ELISA reader. Test Filter: 410 nM Reference Filter: 630 Nm.

PDGFR-β = target: T2, PDGFR-β (Homo sapiens, UniProt P09619); assay: Biochemical PDGFR assay (ELISA, PDGFR-β expressing NIH 3T3 cell lysate); details: read-out: bio PDGF IC50
T2 construct: host or cells: NIH 3T3
From the text: This assay measures the in vitro kinase activity of PDGFR using ELISA.
Unless otherwise noted, the preparation of working solution-of the following reagents is the same as that for the Biochemical EGFR assay, above. • 1. […] 28D4C10 monoclonal anti-PDGFR antibody (Biochemistry Lab, SUGEN, Inc.). • 3. PBS (Dulbecco's Phosphate-Buffered Saline, Gibco Catalog No. 450-1300EB) • 4. TBST Buffer. • 5. Blocking Buffer. • 6. PDGFR-β expressing NIH 3T3 cell lysate (Screening Lab, SUGEN, Inc.). • 7. TBS Buffer. • 8. TBS+10% DMSO. • 9. […] MnCl2. • 11. Kinase buffer phosphorylation mix.
• 12. NUNC 96-well V bottom polypropylene plates (Applied Scientific Cat. No. AS-72092). • 13. Ethylenediaminetetraacetic acid (EDTA). • 14. Rabbit polyclonal anti-phosphotyrosine serum (Biochemistry Lab, SUGEN, Inc.). • 15. Goat anti-rabbit IgG peroxidase conjugate (Biosource Cat. No. ALI0404). • 16. 2,2′-azino-bis(3-ethylbenzthiazoline-6-sulfonic acid) (ABTS, Sigma Cat. No. A-1888). • 17. Hydrogen peroxide 30% solution (Fisher Cat. No. H325). • 18. ABTS/H2O2. • 19. 0.2 M HCl.
Procedure • 1. Coat Corning 96 well ELISA plates with 0.5 μg 28D4C10 in 100 μl PBS per well, store overnight at 4° C. • 2. Remove unbound 28D4C10 from wells by inverting plate to remove liquid. Wash 1× with dH2O. Pat the plate on a paper towel to remove excess liquid. • 3. Add 150 μl of Blocking Buffer to each well. Incubate for 30 min. at room temperature with shaking. • 4. Wash plate 3× with deionized water, then once with TBST. Pat plate on a paper towel to remove excess liquid and bubbles. • 5. Dilute lysate in HNTG (10 μg lysate/100 μl HNTG) • 6. Add 100 μl of diluted lysate to each well. Shake at room temperature for 60 min. • 7. Wash plates as described in 4, above. • 8. Add 80 μl working kinase buffer mix to ELISA plate containing captured PDGFR. • 9. Dilute test compound 1:10 in TBS in 96-well polypropylene plates (i.e., 10 μl compound+90 μl TBS). • 10. Add 10 μl diluted test compound to ELISA plate. […] Incubate for 30 minutes while shaking at room temperature. • 12. Add 10 μl ATP directly to all wells except negative control well (final well volume should be approximately 100 μl with 20 μM ATP in each well.) Incubate 30 minutes while shaking. • 13. After 30 minutes, stop reaction by adding 10 μl of 200 mM EDTA (pH 8.0) to each well. • 14. Wash 4× with deionized water, twice with TBST. • 15. Add 100 μl anti-phosphotyrosine (1:3000 dilution in TBST) per well. Incubate 30-45 min. at room temperature, with shaking. • 16. Wash as described in 4, above. • 17. Add 100 μl Biosource Goat anti-rabbit IgG peroxidase conjugate (1:2000 dilution in TBST) to each well. Incubate 30 min. at room temperature, with shaking. • 18. Wash as described in 4, above. • 19. Add 100 μl of ABTS/H2O2 solution to each well. • 20. Incubate 10 to 30 minutes with shaking. Remove any bubbles. • 21. If necessary stop reaction with the addition of 100 μl 0.2 M HCl per well. • 22. Read assay on Dynatech MR7000 ELISA reader: test filter: 410 nM, reference filter: 630 nM.

flkGST = target: T3, flkGST (Homo sapiens, UniProt P35968); assay: bio flkGST assay; assay type: biochemical
T3 construct: GST
T3 sequence (P35968 786-1356 limits assumed): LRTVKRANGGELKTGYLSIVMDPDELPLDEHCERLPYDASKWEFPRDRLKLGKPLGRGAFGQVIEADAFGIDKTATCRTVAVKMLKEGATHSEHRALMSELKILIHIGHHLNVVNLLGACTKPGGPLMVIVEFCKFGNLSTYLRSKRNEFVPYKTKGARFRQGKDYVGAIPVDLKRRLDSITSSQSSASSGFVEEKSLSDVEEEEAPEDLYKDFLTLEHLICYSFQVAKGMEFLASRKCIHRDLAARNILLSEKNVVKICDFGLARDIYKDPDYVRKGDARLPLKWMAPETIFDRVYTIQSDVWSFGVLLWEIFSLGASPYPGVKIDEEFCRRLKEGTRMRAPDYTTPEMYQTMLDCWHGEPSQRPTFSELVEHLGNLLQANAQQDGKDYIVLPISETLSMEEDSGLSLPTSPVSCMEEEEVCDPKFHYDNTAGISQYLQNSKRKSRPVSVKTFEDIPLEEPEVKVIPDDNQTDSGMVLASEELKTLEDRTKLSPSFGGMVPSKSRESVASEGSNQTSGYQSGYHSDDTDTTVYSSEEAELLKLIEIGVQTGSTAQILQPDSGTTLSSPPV

T2 sequence (P09619 33-1106): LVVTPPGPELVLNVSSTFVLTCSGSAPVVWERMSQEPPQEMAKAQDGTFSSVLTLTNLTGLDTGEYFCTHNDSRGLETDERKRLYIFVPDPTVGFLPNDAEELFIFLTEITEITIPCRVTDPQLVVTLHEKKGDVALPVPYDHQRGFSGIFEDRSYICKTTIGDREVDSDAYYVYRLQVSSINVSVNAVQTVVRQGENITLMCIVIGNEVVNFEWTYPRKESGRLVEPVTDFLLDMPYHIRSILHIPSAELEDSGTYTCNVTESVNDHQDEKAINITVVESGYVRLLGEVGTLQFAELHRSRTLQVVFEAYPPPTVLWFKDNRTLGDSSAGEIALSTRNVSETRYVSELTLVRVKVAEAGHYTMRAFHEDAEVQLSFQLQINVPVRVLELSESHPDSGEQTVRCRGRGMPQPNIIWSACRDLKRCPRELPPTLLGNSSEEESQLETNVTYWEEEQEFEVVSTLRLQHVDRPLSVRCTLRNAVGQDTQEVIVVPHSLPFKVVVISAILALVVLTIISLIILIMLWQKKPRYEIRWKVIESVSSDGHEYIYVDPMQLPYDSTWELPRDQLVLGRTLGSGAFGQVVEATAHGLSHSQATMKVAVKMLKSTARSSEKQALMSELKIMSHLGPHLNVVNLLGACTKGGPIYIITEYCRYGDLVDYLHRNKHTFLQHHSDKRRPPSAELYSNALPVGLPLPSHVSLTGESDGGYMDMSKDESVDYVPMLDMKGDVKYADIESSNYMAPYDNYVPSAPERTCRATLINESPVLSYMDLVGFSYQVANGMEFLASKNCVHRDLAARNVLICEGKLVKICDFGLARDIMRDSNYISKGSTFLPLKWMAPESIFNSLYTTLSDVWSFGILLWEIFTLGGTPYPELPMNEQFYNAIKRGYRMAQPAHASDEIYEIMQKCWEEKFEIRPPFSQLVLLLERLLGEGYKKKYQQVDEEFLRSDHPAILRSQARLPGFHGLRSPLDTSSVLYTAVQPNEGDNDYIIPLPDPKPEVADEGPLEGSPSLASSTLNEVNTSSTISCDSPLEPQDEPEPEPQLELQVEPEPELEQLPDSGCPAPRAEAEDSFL
EGFR, sequence (P00533 25-1210): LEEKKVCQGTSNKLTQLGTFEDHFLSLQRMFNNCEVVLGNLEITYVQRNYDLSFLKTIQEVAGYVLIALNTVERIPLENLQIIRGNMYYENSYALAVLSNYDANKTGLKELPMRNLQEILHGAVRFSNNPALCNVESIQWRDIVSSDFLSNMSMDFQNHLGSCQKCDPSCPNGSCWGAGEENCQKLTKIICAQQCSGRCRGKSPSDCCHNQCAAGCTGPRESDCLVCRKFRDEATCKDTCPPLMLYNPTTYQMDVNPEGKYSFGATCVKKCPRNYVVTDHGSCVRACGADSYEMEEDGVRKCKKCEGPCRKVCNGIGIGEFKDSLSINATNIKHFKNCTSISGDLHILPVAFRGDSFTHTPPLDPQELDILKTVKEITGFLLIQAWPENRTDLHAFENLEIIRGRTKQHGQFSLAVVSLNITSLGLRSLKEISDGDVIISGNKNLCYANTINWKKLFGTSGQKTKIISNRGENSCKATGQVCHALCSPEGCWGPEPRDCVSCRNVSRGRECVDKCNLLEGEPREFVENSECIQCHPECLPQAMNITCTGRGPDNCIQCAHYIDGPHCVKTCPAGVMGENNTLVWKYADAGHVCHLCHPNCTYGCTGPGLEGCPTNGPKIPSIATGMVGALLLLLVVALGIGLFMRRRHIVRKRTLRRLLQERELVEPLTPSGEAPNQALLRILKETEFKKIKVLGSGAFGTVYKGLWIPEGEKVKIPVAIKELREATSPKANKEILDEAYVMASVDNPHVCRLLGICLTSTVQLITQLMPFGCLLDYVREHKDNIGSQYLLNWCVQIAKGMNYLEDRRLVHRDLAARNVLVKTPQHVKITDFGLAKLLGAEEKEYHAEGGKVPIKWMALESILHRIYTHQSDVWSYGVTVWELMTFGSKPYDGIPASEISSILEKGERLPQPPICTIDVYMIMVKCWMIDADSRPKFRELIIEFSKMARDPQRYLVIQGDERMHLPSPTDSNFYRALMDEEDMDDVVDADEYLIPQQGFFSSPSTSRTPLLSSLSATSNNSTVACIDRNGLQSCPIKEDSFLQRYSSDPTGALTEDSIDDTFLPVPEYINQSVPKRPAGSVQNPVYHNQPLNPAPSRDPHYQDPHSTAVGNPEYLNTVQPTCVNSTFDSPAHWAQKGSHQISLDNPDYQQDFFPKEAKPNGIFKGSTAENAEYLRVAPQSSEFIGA
T1 sequence (P04626 720-1255 limits assumed, change not shown): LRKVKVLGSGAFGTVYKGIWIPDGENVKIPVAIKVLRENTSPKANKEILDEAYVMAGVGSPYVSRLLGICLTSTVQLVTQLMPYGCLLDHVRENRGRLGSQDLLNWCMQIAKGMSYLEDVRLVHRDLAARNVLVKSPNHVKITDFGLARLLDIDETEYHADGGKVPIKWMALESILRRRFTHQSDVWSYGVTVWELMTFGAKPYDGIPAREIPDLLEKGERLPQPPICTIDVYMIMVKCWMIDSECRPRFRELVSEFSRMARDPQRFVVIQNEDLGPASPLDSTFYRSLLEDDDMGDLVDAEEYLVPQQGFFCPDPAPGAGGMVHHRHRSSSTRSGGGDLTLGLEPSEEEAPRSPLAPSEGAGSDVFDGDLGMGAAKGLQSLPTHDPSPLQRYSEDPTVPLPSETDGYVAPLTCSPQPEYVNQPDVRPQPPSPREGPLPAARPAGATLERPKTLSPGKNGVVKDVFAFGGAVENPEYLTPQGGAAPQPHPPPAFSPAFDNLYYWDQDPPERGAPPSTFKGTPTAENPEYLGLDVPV

SMILES | IC50 [1] [µM] | IC50 (EGFR) [µM] | IC50 (PDGFR-β) [µM] | IC50 (flkGST) [µM]
Cc1c(C=C2C(=O)Nc3ccc(S(=O)(=O)N(C)C)cc32)[nH]c2ccccc12 (racemic) [Example 155, 3-(3-Methyl-1H-indol-2-ylmethylene)-2-oxo-2,3-dihydro-1H-indole-5-sulfonic acid dimethylamide] | > 100 | > 100 | – | –
CCOC(=O)c1c(C)[nH]c(/C=C2\C(=O)Nc3ccc(OC)cc32)c1CCCN(C)C [Example 120, 4-(3-Dimethylaminopropyl)-5-(5-methoxy-2-oxo-1,2-dihydroindol-3-ylidenemethyl)-2-methyl-1H-pyrrole-3-carboxylic acid ethyl ester] | – | – | 9.97 | 6.32
CCOC(=O)c1c(C)[nH]c(/C=C2\C(=O)Nc3ccc(OC)cc32)c1CCCN1CCOCC1 [Example 121, 5-(5-Methoxy-2-oxo-1,2-dihydroindol-3-ylidenemethyl)-2-methyl-4-(3-morpholin-4-ylpropyl)-1H-pyrrole-3-carboxylic acid ethyl ester] | – | – | 26.7 | 1
CCOC(=O)c1c(C)[nH]c(/C=C2\C(=O)Nc3ccc(OC)cc32)c1CCCN1CCN(C)CC1 [Example 122, 5-(5-Methoxy-2-oxo-1,2-dihydroindol-3-ylidenemethyl)-2-methyl-4-[3-(4-methylpiperazin-1-yl)-propyl]-1h-pyrrole-3-carboxylic acid ethyl ester] | – | – | 2.13 | 0.51
